Assay results: patent publication US20240246954A1, “COMPOSITIONS AND METHODS FOR INHIBITING KRAS” (TheRas, Inc., priority 2021, published 2024)
One block for each compound: values may come before it.

Tests used:
[1] = molecular target: T1, Avi-KRAS G12D (1-169) GppNHp/RAF1 RBD-3×FLAG (52-151) (Homo sapiens, UniProt P01116, G12D); assay: HTRF Raf1-KRAS G12D-GppNHp disruption assay; type: biochemical; conditions: 1 h incubation
T1 construct: Avi-KRAS G12D (1-169) GppNHp
Procedure: (§1) The HTRF assay employed the following protocol:
(§2) Compounds were dispensed in assay plate (384-well, Grenier Bione #784075) using Echo (model 555) with dose response settings: 200 nL final volume, titration from 100 μM as a 10-point dilution series. Protein mix was prepared in assay buffer, and dispensed on plates, 10 μL per well, then incubated for 1 h at room temperature, with 700 rpm shaking. Reagents mix was prepared and dispensed on plates, 10 μL per well, then incubated for 1 h at room temperature, with 700 rpm shaking.
(§3) Plates were analyzed on an Envision plate reader using the following setting: Excitation 320 nm, Bandwidth […]; Emission 615 nm, Bandwidth […], Gain 100%, Flashes 100, Lag 60 μs. Data was reported as percentage of activity, with DMSO as 100%. Data was plotted and analyzed using Prism 8.

[2] = molecular target: T2, Avi-KRAS G12D/Q25A (1-169) GppNHp/3×FLAG-PI3KCA (157-299) (Homo sapiens, UniProt P01116, G12D/Q25A); assay: HTRF PI3KCA-KRAS G12D/Q25A-GppNHp disruption assay; type: biochemical; conditions: 1 h incubation
T2 construct: Avi-KRAS G12D/Q25A (1-169) GppNHp
T2 sequence (P01116 1-169 isoform P01116-2 G12D/Q25A limits assumed): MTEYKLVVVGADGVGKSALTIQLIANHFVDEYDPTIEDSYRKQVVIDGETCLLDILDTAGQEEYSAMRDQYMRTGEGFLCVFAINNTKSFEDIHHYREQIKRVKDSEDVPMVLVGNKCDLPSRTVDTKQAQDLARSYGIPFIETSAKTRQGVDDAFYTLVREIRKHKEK
Procedure: as §1, §2, §3

T1 sequence (P01116 1-169 isoform P01116-2 G12D limits assumed): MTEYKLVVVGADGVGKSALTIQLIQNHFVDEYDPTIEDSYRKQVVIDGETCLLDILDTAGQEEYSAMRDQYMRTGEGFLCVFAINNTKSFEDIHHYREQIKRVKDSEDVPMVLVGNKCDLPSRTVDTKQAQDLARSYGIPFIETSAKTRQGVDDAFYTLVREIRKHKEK

- IC50 [1]: 10 to 30 µM
- IC50 [2]: 1 to 10 µM
SMILES: CN1CCC[C@H]1COc1nc(N2CCNCC2)c2cc(-c3cccnc3)c(-c3ccc(F)c4sc(N)nc34)c(F)c2n1 [Compound 155, 7-fluoro-4-(8-fluoro-2-(((S)-1-methylpyrrolidin-2-yl)methoxy)-4-(piperazin-1-yl)-6-(pyridin-3-yl)quinazolin-7-yl)benzo[d]thiazol-2-amine]

- IC50 [1]: 1 to 10 µM
- IC50 [2]: 1 to 10 µM
SMILES: CN1CCC[C@H]1COc1nc(N2CCNCC2)c2cc(C(F)F)c(-c3ccc(F)c4sc(N)nc34)c(F)c2n1 [Compound 217, 4-(6-(difluoromethyl)-8-fluoro-2-(((S)-1-methylpyrrolidin-2-yl)methoxy)-4-(piperazin-1-yl)quinazolin-7-yl)-7-fluorobenzo[d]thiazol-2-amine]

- IC50 [1]: 10 to 30 µM
- IC50 [2]: 10 to 30 µM
SMILES: CN1CCC[C@H]1COc1nc(N2CCNCC2)c2cc(-c3cnn(C)c3)c(-c3ccc(F)c4sc(N)nc34)c(F)c2n1 [Compound 176]

- IC50 [1]: 10 to 30 µM
- IC50 [2]: 10 to 30 µM
SMILES: CN1CCC[C@H]1COc1nc(NCCN)c2cc(Cl)c(-c3ccc(F)c4nc(N)sc34)c(F)c2n1 [Compound 107]

- IC50 [1]: 10 to 30 µM
- IC50 [2]: 10 to 30 µM
SMILES: C[C@H]1CNCCN1c1nc(OC[C@@H]2CCCN2C)nc2c(F)c(-c3ccc(F)c4sc(N)nc34)c(Cl)cc12 [Compound 78]

- IC50 [1]: 1 to 10 µM
- IC50 [2]: 1 to 10 µM
SMILES: CN1CCC[C@H]1COc1nc(N2CCN(C(=O)CN)CC2)c2cc(C(F)(F)F)c(-c3ccc(F)c4sc(N)nc34)c(F)c2n1 [Compound 116]

- IC50 [1]: 10 to 30 µM
- IC50 [2]: 10 to 30 µM
SMILES: CN(c1nc(OC[C@@H]2CCCN2CCF)nc2c(F)c(-c3ccc(F)c4sc(N)nc34)c(C(F)(F)F)cc12)C1CNC1 [Compound 166]

- IC50 [1]: 10 to 30 µM
- IC50 [2]: 10 to 30 µM
SMILES: Cc1cc2c(N3CCNCC3)nc(OC[C@@H]3CCCN3C)nc2c(F)c1-c1ccc(F)c2sc(N)nc12 [Compound 205]

- IC50 [1]: 1 to 10 µM
- IC50 [2]: 1 to 10 µM
SMILES: CN1CCC[C@H]1COc1nc(N2CC(N)C2)c2cc(Cl)c(-c3ccc(F)c4sc(N)nc34)c(F)c2n1 [Compound 112]

- IC50 [1]: 10 to 30 µM
- IC50 [2]: 10 to 30 µM
SMILES: CN1CCC[C@H]1COc1nc(N2C[C@H]3NCC[C@H]32)c2cc(Cl)c(-c3ccc(F)c4sc(N)nc34)c(F)c2n1 [Compound 95]

- IC50 [1]: 10 to 30 µM
- IC50 [2]: 10 to 30 µM
SMILES: CN1CCC[C@H]1COc1nc(N2C[C@@H]3[C@H]2CCN3C(=O)CN)c2cc(Cl)c(-c3cccc4nc(N)sc34)c(F)c2n1 [Compound 104]

- IC50 [1]: 10 to 30 µM
- IC50 [2]: 10 to 30 µM
SMILES: CN1CCC[C@H]1COc1nc(N2CCNCC2)c2cc(C3(C#N)CCC3)c(-c3ccc(F)c4sc(N)nc34)c(F)c2n1 [Compound 203, 1-[7-(2-amino-7-fluoro-1,3-benzothiazol-4-yl)-8-fluoro-2-[[(2S)-1-methylpyrrolidin-2-yl]methoxy]-4-piperazin-1-yl-quinazolin-6-yl]cyclobutanecarbonitrile]

- IC50 [1]: 10 to 30 µM
- IC50 [2]: 10 to 30 µM
SMILES: CN1CCC[C@H]1COc1nc(NCCN)c2cnc(-c3ccc(F)c4sc(N)nc34)c(F)c2n1 [Compound 81]

- IC50 [1]: 10 to 30 µM
- IC50 [2]: 10 to 30 µM
SMILES: COc1cc2c(N3C[C@@H](C)NC[C@@H]3C)nc(OC[C@@]34CCCN3C[C@H](F)C4)nc2c(F)c1-c1ccc(F)c2sc(N)nc12 [Compound 281, 4-(4-((2S,5R)-2,5-dimethylpiperazin-1-yl)-8-fluoro-2-(((2R,7aS)-2-fluorotetrahydro-1H-pyrrolizin-7a(5H)-yl)methoxy)-6-methoxyquinazolin-7-yl)-7-fluorobenzo[d]thiazol-2-amine]

- IC50 [1]: 10 to 30 µM
- IC50 [2]: 10 to 30 µM
SMILES: CO[C@@H]1CN(C)C[C@H]1Oc1nc(NC2CNC2)c2cc(Cl)c(-c3ccc(F)c4sc(N)nc34)c(F)c2n1 [Compound 68]

- IC50 [1]: 10 to 30 µM
- IC50 [2]: 10 to 30 µM
SMILES: CN1CCC[C@H]1COc1nc(N2CC3CNCC3C2)c2cc(Cl)c(-c3ccc(F)c4sc(N)nc34)c(F)c2n1 (stereo partly shown) [Compound 71]

- IC50 [1]: 1 to 10 µM
- IC50 [2]: 1 to 10 µM
SMILES: CN1CCC[C@H]1COc1nc(NC2CCNC2)c2cc(Cl)c(-c3ccc(F)c4sc(N)nc34)c(F)c2n1 (stereo partly shown) [Compound 98]

Second part, the compound before the results:

SMILES: CN(c1nc(OCC23CCCN2CCC3)nc2c(F)c(-c3ccc(F)c4sc(N)nc34)c(C(F)(F)F)cc12)[C@H]1C[C@H]2CC[C@@H]1N2 (atropisomer, axis not shown) [Compound 271]
- IC50 [1]: 0.1 to 1 µM
- IC50 [2]: 1 to 10 µM

SMILES: C[C@@H]1CN(c2nc(OC[C@@]34CCCN3C[C@H](F)C4)nc3c(F)c(-c4ccc(F)c5sc(N)nc45)c(OC(F)F)cc23)[C@@H](C)CN1 [Compound 282, 4-(6-(difluoromethoxy)-4-((2S,5R)-2,5-dimethylpiperazin-1-yl)-8-fluoro-2-(((2R,7aS)-2-fluorotetrahydro-1H-pyrrolizin-7a(5H)-yl)methoxy)quinazolin-7-yl)-7-fluorobenzo[d]thiazol-2-amine]
- IC50 [1]: 1 to 10 µM
- IC50 [2]: 1 to 10 µM

SMILES: Nc1nc2c(-c3c(Cl)cc4c(N5CC6CNC(C6)C5)ncnc4c3F)ccc(F)c2s1 (stereo not shown) [Compound 243]
- IC50 [1]: 10 to 30 µM
- IC50 [2]: 10 to 30 µM

SMILES: N#CCc1cc2c(N3CCN(C(=O)CN)CC3)ncnc2c(F)c1-c1ccc(F)c2sc(N)nc12 [Compound 131]
- IC50 [1]: 10 to 30 µM
- IC50 [2]: 10 to 30 µM

SMILES: CN(c1nc(OC[C@@H]2C[C@@H](F)CN2C)nc2c(F)c(-c3ccc(F)c4sc(N)nc34)c(C(F)(F)F)cc12)C1CN(C(=O)CN)C1 [Compound 156]
- IC50 [1]: 10 to 30 µM
- IC50 [2]: 10 to 30 µM

SMILES: Nc1nc2c(-c3c(C(F)(F)F)cc4c(NC5CNC5)ncnc4c3F)ccc(F)c2s1 [Compound 88]
- IC50 [1]: 10 to 30 µM
- IC50 [2]: 10 to 30 µM

SMILES: C[C@@H]1CN(c2nc(OC[C@]34CCCN3C[C@H](F)C4)nc3c(F)c(-c4ccc(F)c5sc(N)nc45)c(C(F)(F)F)cc23)CCN1 [Compound 210]
- IC50 [1]: 1 to 10 µM
- IC50 [2]: 10 to 30 µM

SMILES: CN(c1nc(OCC23CCCN2CCC3)nc2c(F)c(-c3ccc(F)c4sc(N)nc34)c(C(F)(F)F)cc12)[C@@H]1CCNC1 (single isomer, unassigned) [Compound 238]
- IC50 [1]: 1 to 10 µM
- IC50 [2]: 1 to 10 µM

SMILES: Nc1nc2c(-c3c(C(F)(F)F)cc4c(NC5CC6CC[C@H]5N6)nc(OCC56CCCN5CCC6)nc4c3F)ccc(F)c2s1 (stereo partly shown) [Compound 266]
- IC50 [1]: 0.1 to 1 µM
- IC50 [2]: 1 to 10 µM

SMILES: CN(c1nc(OCC23CCCN2CC(C)(C)C3)nc2c(F)c(-c3ccc(F)c4sc(N)nc34)c(C(F)(F)F)cc12)C1CNC1 (stereo not shown) [Compound 201]
- IC50 [1]: 10 to 30 µM
- IC50 [2]: 10 to 30 µM

SMILES: C[C@@H]1CN(c2nc(OC[C@@]34CCCN3C[C@H](F)C4)nc3c(F)c(-c4ccc(F)c5sc(N)nc45)c(C(F)F)cc23)[C@@H](C)CN1 [Compound 302]
- IC50 [1]: 1 to 10 µM
- IC50 [2]: 1 to 10 µM

SMILES: CN(c1nc(OCC23CCCN2CCC3)nc2c(F)c(-c3ccc(F)c4sc(N)nc34)c(C(F)(F)F)cc12)C1CCNCC1 [Compound 280]
- IC50 [1]: 1 to 10 µM
- IC50 [2]: 1 to 10 µM

SMILES: Nc1nc2c(-c3c(OC(F)(F)F)cc4c(N5CC6CCC(C5)N6)nc(OC[C@@]56CCCN5C[C@H](F)C6)nc4c3F)ccc(F)c2o1 [Compound 233]
- IC50 [1]: 1 to 10 µM
- IC50 [2]: 1 to 10 µM

SMILES: Nc1nc2c(-c3c(C(F)(F)F)cc4c(N5CC6CC5CN6)nc(OC[C@@]56CCCN5C[C@H](F)C6)nc4c3F)ccc(F)c2s1 (stereo partly shown) [Compound 239]
- IC50 [1]: 1 to 10 µM
- IC50 [2]: 1 to 10 µM

SMILES: N#Cc1cc2c(N3CCNCC3)ncnc2c(F)c1-c1ccc(F)c2sc(N)nc12 [Compound 94, 7-(2-amino-7-fluorobenzo[d]thiazol-4-yl)-8-fluoro-4-(piperazin-1-yl)quinazoline-6-carbonitrile]
- IC50 [1]: 10 to 30 µM
- IC50 [2]: 10 to 30 µM
